Laboratory results: publication PMC9231089, “Sorafenib Chemosensitization by Caryophyllane Sesquiterpenes in Liver, Biliary, and Pancreatic Cancer Cells: The Role of STAT3/ABC Transporter Axis” (Pharmaceutics, 2022)
Marks after values point to notes of the source that are not given here.

Columns and labels:
[1] = design: method as in PMID 33081075; conditions: European Food Safety Authority; cited from earlier work
Mz-ChA-1 [2] = assay: MTT cytotoxicity assay, substances alone, Mz-ChA-1; assay type: cell-based, human; conditions: Mz-ChA-1
Description: (§1) Suitable vehicle controls were also included.
(§2) The effect of the treatments on cell viability was measured by the MTT assay as previously described. A higher than 30% reduction of cell viability was considered as a significant cytotoxic effect.

Mz-ChA-1 [3] = assay: Combination assay with sorafenib (MTT), Mz-ChA-1; assay type: cell-based, human;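 for increase of sorafenib cytotoxicity in combination: percent increase of sorafenib cell viability inhibition versus sorafenib alone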
Description: as §1
(§3) The type of interaction (synergistic, additive, or antagonistic) among sorafenib and test substances or positive controls was evaluated by measuring the reversal ratio value (RR), combination index (CI), and isobolographic analysis (IB), as previously described.

Pgp [4] = assay: Immunofluorescence analysis in Bx-PC3 cells, Pgp; assay type: cell-based, human
Description: as §1
(§4) The analysis was performed according to previously published methods. Confluent cells were seeded in 24-well plates (2 × 10^4 cells/well), allowed to adhere overnight, then treated as described above. After treatment, cells were fixed in pure methanol and washed with 4% bovine serum albumin (BSA) and PBS + Tween 20 (PBS-T) for 1 h. […] The expression and localization of Pgp, MRP1, and MRP2 pumps into cells were analyzed by using a Cytation 1 Cell Imaging Multimode Reader (Biotech, USA).

MRP1/2 [5] = assay: ABC-mediated drug efflux assay, calcein-AM accumulation, Bx-PC3 cells; assay type: cell-based, human; conditions: 2 h pre-treatment, sesquiterpenes 10 μg/mL, MK571 1 μg/mL, vs control
Pgp [6] = target: T1, Pgp (Homo sapiens, UniProt P08183); assay: ABC-mediated drug efflux assay, rhodamine 123 accumulation, HepG2 cells; conditions: 2 h pre-treatment, sesquiterpenes 10 μg/mL, verapamil 1 μg/mL, vs control
Description: (§5) The ability of β-caryophyllene and β-caryophyllene oxide to inhibit the activity of Pgp and MRP1/2 transporters was measured according to previously published methods with slight modifications. […] Fluorescence was measured at excitation and emission wavelengths of 485 nm and 535 nm for both probes, using a Cytation 1 Cell Imaging Multimode Reader (Biotech, Santa Clara, CA, USA). Results were normalized to viable cells and expressed as percentage of the negative control.

MRP1/2 [7] = assay: ABC-mediated drug efflux assay, calcein-AM accumulation, HepG2 cells; assay type: cell-based, human; conditions: 2 h pre-treatment, sesquiterpenes 10 μg/mL, vs control
Bx-PC3 cells = assay: Wound healing assay (cell migration); assay type: cell-based, human
Description: To evaluate the effect of caryophyllane sesquiterpenes, both alone and in combination with sorafenib, on the cell migration rate, the wound healing assay was performed. Bx-PC3 cells were seeded in 24-well plate at a density of 2.5 × 10^5 cells/well. After 24 h, the wound was created by scratching the well bottom with a 100 μL pipette tip, then the cells were treated under the scheduled conditions and images were captured at 0, 4, and 72 h using a Cytation 1 Cell Imaging Multi-Mode Reader. […] Results were expressed as wound area percentage with respect to that of the same well at zero time. The positive controls were also included.

MDR1 = assay: RT-qPCR gene expression in Bx-PC3 cells, MDR1
Description: (§6) Confluent cells were treated with the test substances, both alone or in combination with the anticancer drug, for 4 h, then washed and incubated for a further 72 h (Figure 1), according to previously published protocols [20]. […] Suitable vehicle controls were also included.
(§7) The results of mRNA abundance for the targeted genes in each sample were normalized on the basis of GAPDH (Bio-Rad, Hercules, CA, USA) mRNA. Data are expressed as 2^−ΔCt, calculated using the CFX Manager software (Bio-Rad).

Bx-PC3 [8] = assay: MTT cytotoxicity assay, substances alone, Bx-PC3; assay type: cell-based, human
Description: as §1, §2

phospho(Tyr705)-STAT3 = assay: Western blotting of STAT3 phosphorylation in Bx-PC3 cells; assay type: cell-based, human
Description: as §1
Confluent cells were seeded in 6-well plates (5 × 10^5 cells/well), treated as described above, then harvested by centrifugation and washed in PBS. After lysis with a suitable buffer, the Western blotting analysis was carried out, according to previously published methods. […] The levels of phospho(Tyr705)-STAT3 were normalized against total STAT3 ones.

MRP1 [9] = assay: Immunofluorescence analysis in Bx-PC3 cells, MRP1; assay type: cell-based, human; conditions: substance 10 µg/mL in combination with sorafenib 10 µg/mL
Description: as §1, §4

MRP2 [10] = assay: Immunofluorescence analysis in Bx-PC3 cells, MRP2; assay type: cell-based, human
Description: as §1, §4

HepG2 [11] = assay: MTT cytotoxicity assay, substances alone, HepG2; assay type: cell-based, human; conditions: HepG2
Description: as §1, §2

MRP2 [12] = assay: RT-qPCR gene expression in Bx-PC3 cells, MRP2; conditions: substance in combination with sorafenib, given for MRP1 and MRP2 together
Description: as §6, §7

Pgp [13] = target: T1, Pgp; assay: ABC-mediated drug efflux assay, rhodamine 123 accumulation, Mz-ChA-1 cells; conditions: 2 h pre-treatment, sesquiterpenes 10 μg/mL, verapamil 1 μg/mL, vs control
Description: as §5

MRP1/2 [14] = assay: ABC-mediated drug efflux assay, calcein-AM accumulation, Mz-ChA-1 cells; assay type: cell-based, human; conditions: 2 h pre-treatment, sesquiterpenes 10 μg/mL, vs control
[15] = design: method as in PMID 30659321; conditions: previous in vivo study; cited from earlier work
[16] = test system: noncancerous H69 cholangiocytes; assay: Combination assay with sorafenib (MTT), tolerability in H69; assay type: cell-based, human; conditions: sesquiterpene 10 μg/mL combined with sorafenib (protective effect at sorafenib 10 μg/mL)
Description: as §1, §3

MRP1 [17] = assay: RT-qPCR gene expression in Bx-PC3 cells, MRP1; assay type: cell-based, human; conditions: substance in combination with sorafenib, given for MRP1 and MRP2 together
From the text: as §1

[18] = test system: noncancerous H69 cholangiocytes; assay: MTT cytotoxicity assay (tolerability), substances alone, H69; assay type: cell-based, human; conditions: H69 noncancerous cholangiocytes; substance alone; 4 h exposure + 72 h recovery
Description: as §1, §2

HepG2 [19] = assay: Combination assay with sorafenib (MTT), HepG2; assay type: cell-based, human; conditions: for increase of sorafenib cytotoxicity in combination: verapamil/MK571 1 µg/mL or sesquiterpenes 10 µg/mL;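 for increase of sorafenib cytotoxicity in combination: percent increase of sorafenib cell viability inhibition versus sorafenib alone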
Description: as §1, §3

Pgp [20] = target: T1, Pgp; assay: ABC-mediated drug efflux assay, rhodamine 123 accumulation, Bx-PC3 cells; conditions: 2 h pre-treatment, sesquiterpenes 10 μg/mL, verapamil 1 μg/mL, vs control
Description: as §5

Bx-PC3 [21] = assay: Combination assay with sorafenib (MTT), Bx-PC3; assay type: cell-based, human;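 for increase of sorafenib cytotoxicity in combination: percent increase of sorafenib cell viability inhibition versus sorafenib alone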
Description: as §1, §3

[22] = substance alone, 4 h exposure + 72 h recovery
[23] = substance in combination with sorafenib 10 μg/mL

T1 sequence (P08183 whole entry): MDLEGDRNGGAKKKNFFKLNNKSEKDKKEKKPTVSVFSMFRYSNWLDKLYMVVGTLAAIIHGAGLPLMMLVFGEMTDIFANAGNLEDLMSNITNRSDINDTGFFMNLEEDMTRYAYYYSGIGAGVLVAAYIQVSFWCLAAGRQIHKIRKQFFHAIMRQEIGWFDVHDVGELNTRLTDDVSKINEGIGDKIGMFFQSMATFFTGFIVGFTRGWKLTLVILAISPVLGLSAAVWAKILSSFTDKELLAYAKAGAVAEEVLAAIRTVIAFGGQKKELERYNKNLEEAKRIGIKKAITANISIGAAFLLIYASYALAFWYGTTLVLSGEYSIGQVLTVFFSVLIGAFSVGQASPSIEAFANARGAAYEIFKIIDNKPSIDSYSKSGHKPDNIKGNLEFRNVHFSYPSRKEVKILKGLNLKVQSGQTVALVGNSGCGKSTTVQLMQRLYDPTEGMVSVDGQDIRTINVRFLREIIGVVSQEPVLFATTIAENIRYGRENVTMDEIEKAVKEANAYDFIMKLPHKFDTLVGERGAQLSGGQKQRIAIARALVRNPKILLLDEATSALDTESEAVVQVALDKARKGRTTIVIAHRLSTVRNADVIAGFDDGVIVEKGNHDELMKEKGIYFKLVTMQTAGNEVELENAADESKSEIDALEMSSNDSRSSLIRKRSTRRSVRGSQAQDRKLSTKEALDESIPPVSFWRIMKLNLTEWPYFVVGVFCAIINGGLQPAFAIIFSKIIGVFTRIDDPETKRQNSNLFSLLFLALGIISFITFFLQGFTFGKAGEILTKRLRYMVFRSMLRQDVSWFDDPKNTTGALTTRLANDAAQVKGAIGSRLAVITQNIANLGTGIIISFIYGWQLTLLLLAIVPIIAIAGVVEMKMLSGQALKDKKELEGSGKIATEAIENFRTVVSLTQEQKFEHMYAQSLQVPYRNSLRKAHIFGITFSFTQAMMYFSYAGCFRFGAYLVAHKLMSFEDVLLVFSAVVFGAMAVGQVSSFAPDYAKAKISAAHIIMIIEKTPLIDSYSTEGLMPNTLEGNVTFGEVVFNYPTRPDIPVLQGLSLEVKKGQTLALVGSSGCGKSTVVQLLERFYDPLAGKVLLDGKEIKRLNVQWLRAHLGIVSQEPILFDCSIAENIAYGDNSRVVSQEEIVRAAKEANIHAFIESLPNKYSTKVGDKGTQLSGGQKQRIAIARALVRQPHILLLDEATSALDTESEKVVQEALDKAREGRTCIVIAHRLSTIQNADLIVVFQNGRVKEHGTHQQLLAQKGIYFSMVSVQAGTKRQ

SMILES: C=C1CC[C@H]2O[C@]2(C)CC[C@@H]2[C@@H]1CC2(C)C [β-Caryophyllene oxide, β-caryophyllene oxide]
- considered safe up to (approved as flavoring) [1]: ≤ 109 mg/kg/die
- IC50 higher than that of sorafenib (Mz-ChA-1 [2]): 1.2 fold
- inhibition of cell viability (Mz-ChA-1 [2]; 50 µg/mL): 16%
- inhibition of cell viability (Mz-ChA-1 [2]; 250 µg/mL): 90%
- IC50 (CL) (Mz-ChA-1 [2]; [22]): 94.5 (90.1–99.1) ** µg/mL
- reduction of sorafenib IC50 in the presence of the substance (Mz-ChA-1 [3]): ~1.5 fold
- combination index (CI) with sorafenib (Mz-ChA-1 [3]; CI lower than 1 = synergistic): 0.76
- increase of sorafenib cytotoxicity in combination (Mz-ChA-1 [3]; sorafenib 10 µg/mL, verapamil/MK571 1 µg/mL or sesquiterpenes 10 µg/mL): 14%
- increase of sorafenib cytotoxicity in combination (Mz-ChA-1 [3]; sorafenib 50 µg/mL, sesquiterpenes 10 µg/mL): 13%
- effect on Pgp expression (immunofluorescence) (Pgp [4]; substance alone, sorafenib and sesquiterpenes 10 µg/mL, verapamil 1 µg/mL): did not affect
- reduction of Pgp expression compared to control (Pgp [4]; [23]): ~1.8 fold
- increase of calcein-AM accumulation (MRP1/2 [5]): ~3.0 fold
- increase of rhodamine 123 accumulation (Pgp [6]): ~2.5 fold
- increase of calcein-AM accumulation (MRP1/2 [7]): approximately 1.3 fold
- wound area / cell migration after 72 h (Bx-PC3 cells; substance alone, sesquiterpenes 10 µg/mL, verapamil/MK571 1 µg/mL): blocked cell migration
- increase of wound area (Bx-PC3 cells; substance in combination with sorafenib 10 µg/mL, reference and time not stated): ~5 fold
- increase of MDR1 gene expression with respect to control (MDR1; [22]): 4.7 fold
- downregulation of MDR1 gene with respect to sorafenib alone (MDR1; substance in combination with sorafenib): 1.3 fold
- IC50 higher than that of sorafenib (Bx-PC3 [8]): 2.1 fold
- inhibition of cell viability (Bx-PC3 [8]; 50 µg/mL): 30%
- inhibition of cell viability (Bx-PC3 [8]; 250 µg/mL): 95%
- IC50 (CL) (Bx-PC3 [8]; [22]): 65.3 (62.1–68.7) *** µg/mL
- increase of STAT3 phosphorylation at tyrosine 705 (phospho(Tyr705)-STAT3; substance alone, sorafenib and sesquiterpenes 10 μg/mL, verapamil/MK571 1 μg/mL, normalized to total STAT3): approximately 3 fold
- reduction of phospho(Tyr705)-STAT3 with respect to sorafenib (phospho(Tyr705)-STAT3; [23]): 2.6 fold
- reduction of MRP1 expression with respect to sorafenib (MRP1 [9]): 1.5 fold
- reduction of MRP2 expression with respect to sorafenib (MRP2 [10]; substance 10 µg/mL in combination with sorafenib 10 µg/mL): 1.6 fold
- increase of MRP2 expression (immunofluorescence) (MRP2 [10]; substance alone, 10 µg/mL): 1.2 fold
- IC50 higher than that of sorafenib (HepG2 [11]): 1.7 fold
- IC50 (CL) (HepG2 [11]; substance alone, 4 h exposure + 72 h recovery, CL confidence limits): 78.7 (76.8–80.5) *** µg/mL
- reduction of MRP2 gene expression (MRP2 [12]): 3 fold
- increase of rhodamine 123 accumulation (Pgp [13]): ~1.2 fold
- increase of calcein-AM accumulation (MRP1/2 [14]): ~1.4 fold
- safety in vivo up to [15]: ≤ 100 mg/kg
- effect on sorafenib cytotoxicity in noncancerous cells [16]: null effect
- reduction of MRP1 gene expression (MRP1 [17]): 3 fold
- IC50 (CL) [18]: 99.7 (93.1–106.9) *** µg/mL
- reduction of sorafenib IC50 in the presence of the substance (HepG2 [19]): ~6 fold
- combination index (CI) with sorafenib (HepG2 [19]; CI lower than 1 = synergistic): 0.29
- increase of sorafenib cytotoxicity in combination (HepG2 [19]; sorafenib 1 µg/mL): 20%
- increase of sorafenib cytotoxicity in combination (HepG2 [19]; sorafenib 10 µg/mL): ~44%
- increase of rhodamine 123 accumulation (Pgp [20]): approximately 2.7 fold
- reduction of sorafenib IC50 in the presence of the substance (Bx-PC3 [21]): 9 fold
- combination index (CI) with sorafenib (Bx-PC3 [21]; CI lower than 1 = synergistic): 0.26
- increase of sorafenib cytotoxicity in combination (Bx-PC3 [21]; sesquiterpenes 10 µg/mL, sorafenib concentration not stated (Figure 3F)): 64%
